Experimental findings from US20210379033A1, “METHODS OF TREATING CANCER WITH ARYL HYDROCARBON RECEPTOR ANTAGONISTS” (Magenta Therapeutics Inc., priority 2018, published 2021) are described below.

Molecules are shown by their SMILES. Where two headings read alike, the source gives them in different places.

Series [1] deals with T1, aryl hydrocarbon receptor (Homo sapiens, UniProt P35869).
T1 construct: HepG2 cells transiently transfected with the pGudLuc8.1 plasmid were thawed and 25,000 cells were plated per well; endogenous in cells; host or cells: HepG2
T1 sequence (P35869 11-848): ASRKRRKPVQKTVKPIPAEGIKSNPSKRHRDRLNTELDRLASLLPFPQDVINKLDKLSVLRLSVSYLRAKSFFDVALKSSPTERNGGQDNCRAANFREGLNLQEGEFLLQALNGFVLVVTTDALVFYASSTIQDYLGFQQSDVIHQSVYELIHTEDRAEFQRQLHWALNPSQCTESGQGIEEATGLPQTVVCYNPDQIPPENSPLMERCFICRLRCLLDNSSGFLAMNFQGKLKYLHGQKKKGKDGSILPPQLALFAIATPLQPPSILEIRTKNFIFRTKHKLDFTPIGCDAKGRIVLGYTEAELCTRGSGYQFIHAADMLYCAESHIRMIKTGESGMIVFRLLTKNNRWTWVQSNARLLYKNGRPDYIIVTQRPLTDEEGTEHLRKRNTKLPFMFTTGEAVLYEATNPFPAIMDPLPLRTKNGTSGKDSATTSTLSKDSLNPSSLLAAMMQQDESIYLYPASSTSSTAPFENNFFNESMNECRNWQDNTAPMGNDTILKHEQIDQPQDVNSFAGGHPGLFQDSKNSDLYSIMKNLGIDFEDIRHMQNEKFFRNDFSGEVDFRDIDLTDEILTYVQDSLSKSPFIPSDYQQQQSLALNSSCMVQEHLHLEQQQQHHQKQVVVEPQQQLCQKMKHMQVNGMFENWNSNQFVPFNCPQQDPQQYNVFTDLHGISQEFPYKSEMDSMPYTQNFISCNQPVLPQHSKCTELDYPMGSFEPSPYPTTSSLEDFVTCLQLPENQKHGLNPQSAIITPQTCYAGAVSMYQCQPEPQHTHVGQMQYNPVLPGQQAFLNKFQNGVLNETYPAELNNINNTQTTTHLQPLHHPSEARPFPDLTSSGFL
The experiment in a line: Aryl hydrocarbon receptor-driven luciferase reporter in transiently transfected HepG2 cells (Example 3). The series is classed as cell-based. Conditions: absence (FIG. 1) or presence (FIG. 2) of agonist VAF347 (80 nM), luciferase six hours after plating. As to the method: Experimental details for this experiment are reported in Example 3, below.
To determine the ability of compounds (5) and (16) to inhibit the activity of the aryl hydrocarbon receptor and to induce the proliferation of hematopoietic stem cells, a series of HSC expansion experiments were conducted. In the first experiment, compounds (5) and (16) were assessed for their capacity to attenuate aryl hydrocarbon receptor signaling. To this end, HepG2 hepatocytes were transiently transfected with a luciferase reporter construct under the control of a promoter responsive to aryl hydrocarbon receptor signal transduction. The cells were plated at a density of 25,000 cells per well in a microtiter plate. The HepG2 cells were immediately treated with compound (5) or (16) in the absence (FIG. 1) or presence (FIG. 2) of the aryl hydrocarbon receptor agonist, VAF347 (80 nM). Luciferase activity was subsequently analyzed six hours after plating.

In series [2] the target is T2, aryl hydrocarbon receptor (AHR) (Homo sapiens, UniProt P35869).
T2 construct: HepG2 cells transiently transfected with the pGudLuc8.1 plasmid were thawed and 25,000 cells were plated per well; endogenous in cells; host or cells: HepG2
T2 sequence (P35869 11-848): T1 sequence (P35869 11-848)
Briefly: AHR antagonist assay: luciferase reporter in HepG2 cells transiently transfected with pGudLuc8.1. It counts as cell-based. Conditions: HepG2 cells, 25,000 cells per well, luciferase activity 24 hours post-culture. Here is the method: To determine the activity of a scale-up batch of Compound (24), individual enantiomers, and two derivatives Compound (27) and Compound (28) were evaluated for AHR antagonist activity. The compounds were compared to control AHR antagonist SR1, an additional control AHR antagonist, and stored sample of Compound (24)
Methods—HepG2 cells transiently transfected with the pGudLuc8.1 plasmid were thawed and 25,000 cells were plated per well and immediately treated the AHR agonist VAF347 (fixed at 40 nM) and/or the indicated AHR antagonists. Luciferase activity was measured 24 hours post-culture, corresponding to endogenous AHR antagonist activity (without VAF347, FIG. 8) or in the presence of VAF347 (FIG. 9). All synthesized compounds show equivalent AHR antagonist activity if not greater than SR1.

`CCC(C)c1cnc2c(NCCc3c[nH]c4ccccc34)cc(-c3cncc(F)c3)cn12` (stereo not shown) [Compound (5)]: the “suppression of aryl hydrocarbon receptor activity (luciferase)” value in series [1] is given as “capable of suppressing aryl hydrocarbon receptor activity even in the presence of the activator VAF347”.
Regarding `CCC(C)c1cnc2c(NCCc3c[nH]c4ccccc34)nc(-c3cncc(F)c3)cn12` (stereo not shown) [Compound (16)], the “suppression of aryl hydrocarbon receptor activity (luciferase)” value in series [1] is reported as “capable of suppressing aryl hydrocarbon receptor activity even in the presence of the activator VAF347”.
For the compound `CC(C)n1cnc2c(NCCc3ccc(O)cc3)nc(-c3csc4ccccc34)nc21` [SR1], the EC50 was determined as 193 nM in series [2] (AHR agonist VAF347 fixed at 40 nM, read-out: AHR Antagonist Activity in the Presence of VAF347 EC50) and 33 nM in series [2] (without VAF347, read-out: Endogenous AHR Antagonist Activity EC50).
